“Also recorded” adds a separate entry of the source.
Assays:
C57BL/6 STZ mice = experiment: Fasting blood glucose in STZ-induced diabetic C57BL/6 mice treated with IGF-2; assay type: in vivo, mouse; details: for fasting glucose levels during the ten-day course of treatment: day 0 and ten more times within ten days
Protocol: C57BL/6 mice male 8-10 weeks old, housed under conventional conditions and allowed laboratory chow and water ad libitum, were used in the experiments described below in Examples 3-4. Within each experiment, animals were matched by age and weight (20-24 g) and randomly divided into groups to receive different treatments. Diabetes was induced by one or more doses of streptozotocin (STZ).
Briefly, animals received intraperitoneally (i.p.) 100 mg/kg (b.w.) STZ (Cayman Chemical, Ann Arbor, MI) dissolved in citrate buffer on pH 4.5 (this procedure was repeated if needed). Clinical diabetes was defined by hyperglycemia (blood glucose levels >300 mg/dl in fasted animals). Fasting blood glucose levels were measured three times per week and samples were taken from the tail tip after starvation for 6 hours throughout the experiment.
Fasting blood glucose levels (mg/dL) were determined using the Accu-Chek Performa glucometer (Roche Diagnostics, Mannheim, Germany). After approximately two weeks of stable hyperglycemia, C57BL/6 STZ mice received exogenous injections of recombinant human IGF-2 (0.3-12 mg/kg/day injection) intraperitoneally for 5-10 consecutive days. During post-treatment follow-up period and upon termination, mice were tested for: fasting glucose, body weight, glucose tolerance test (IPGTT), serum C-peptide level, serum insulin level, and full blood and histological analysis (CBC, Chemistry, Insulin IHC and H&E).

STZ-treated mice = experiment: Intraperitoneal glucose tolerance test 50 days post-treatment; assay type: in vivo, mouse
Protocol: In this experiment, four STZ-treated mice were treated with 12,000 μg/kg/day of IGF-2 (four injections of 3000 μg/kg/day) 5 days and two mice were treated for 10 days. A glucose tolerance test was performed 50 days post-treatment with IGF-2 by challenging the treated mice with a 2 grams/kg dose of glucose and determining the blood glucose level over a 180 minute time course. The blood glucose curves of the treated mice were compared to results for a saline control, and normal (nondiabetic) obese and normal (nondiabetic) lean mice based on published literature (Jorgensen et al., J. Am Assoc. Lab. Animal Sci 2017 56(1): 95-97).

STZ-treated mouse islets = experiment: Insulin secretion from STZ-treated mouse islets; assay type: cell-based; details: islets treated with 2.5 mM STZ; 48 hours after treatment; IGF-2 50 nM and 500 nM, GLP-1 100 nM and 1000 nM
Protocol: Mouse islet cells were treated with 2.5 mM STZ and subsequently treated with either IGF-2 (FA) at 50 nM and 500 nM, or with GLP-1 at 100 nM and 1000 nM.

[1] = system: human pancreatic islet cells; experiment: Insulin secretion of human pancreatic islet cells in response to a glucose pulse; assay type: cell-based; details: 50 nM for four days
β-MIN6 cells = experiment: Cell count (cell proliferation) of β-MIN6 cells; assay type: cell-based, mouse; details: 5 nM, 20 nM, 80 nM, 1 week treatment
Text: β-MIN6 cells serve as an in vitro model of mouse pancreatic islets. β-MIN6 cells were used as an in vitro model to measure the effects of treatment with IGF-2.

db/db mice = experiment: Histopathology and immunohistochemical staining of pancreas islet cells in db/db mice; assay type: in vivo, mouse; details: sacrificed 70 days after the end of treatment
Protocol: FIG. 27 provides results of histopathology and immunohistochemical studies showing the number of pancreas islet cells that test positive for insulin (left panel) and glucagon (right panel) in db/db mice. In this experiment, one group of db/db mice was injected with 12000 μg/kg of IGF-2 on each of 70 consecutive days, a second group of db/db mice was injected with saline, and a third group of db/db mice was a naïve control group. The mice were sacrificed for pathology 70 days after the end of the initial 70 day treatment.
In this experiment, one group of db/db mice (labeled X4) was injected with 12000 μg/kg of IGF-2 on each of 70 consecutive days, a second group of db/db mice (labeled X1) was injected with 3000 μg/kg of IGF-2 on each of 70 consecutive days, and a third group of db/db mice (labeled control) was injected with saline. The mice were sacrificed for pathology 70 days after the end of the initial 70 day treatment. […] The control panels show a positive stain for insulin, which increases in intensity in the 3000 μg/kg/day mice, and increases again in intensity in the 12,000 μg/kg/day mice.

mice = experiment: Blood glucose concentration kinetics of IGF-2 vs. insulin in a glucose tolerance test; assay type: in vivo, mouse; details: IGF-2 800 μg/kg
Text: IGF-2 therefore provides an effect that mimics insulin within the body, and that effect is referred to herein as an “insulinomimetic” effect. […] In this example, administering IGF-2 can provide better results than administering insulin with respect to blood glucose levels, even when only a single dose was used. Without being bound by this theory, it is possible that the IGF-2 combines with a number of binding proteins in the blood and its active free form is then released slowly from the complex.

[2] = Blood level of total and free IGF-2 after 40 μg intraperitoneal injection (ELISA); assay type: in vivo, mouse; details: 240 minute time frame
Text: Without being bound by this theory, it is believed that IGF-2 binding proteins may initially inactivate the biological activity of free IGF-2. And over time, the bond between IGF-2 and the binding protein may be released, increasing the bioavailability of IGF-2 and leading to a longer term effective treatment.

NOD mice = experiment: Serum insulin / insulin secretion in NOD mice treated with IGF-2; assay type: in vivo, mouse
Protocol: FIG. 30B depicts the levels of serum insulin in NOD mice measured two weeks after a 66 day course of treatment using IGF-2. Mice that were treated with 3000 μg/kg/day of IGF-2 had serum insulin levels that were about 4-fold higher than the control mice.
In one exemplary experiment, NOD mice were treated with a 3000 μg/kg daily doses of IGF-2 for 150 days. ⅘ of the treated mice maintained normoglycemia compared to ¼ of the control mice. In another exemplary experiment, NOD mice were treated with a 3000 μg/kg daily dose of IGF-2 for 75 days with follow-up glucose measurements taken for an additional 90 days (during which IGF-2 was not administered). ⅝ of the treated mice maintained normoglycemia compared to 2/11 of the control mice.

With insulin-like growth factor 2 [IGF-2] the hypoglycemia (C57BL/6 STZ mice; 3000 μg/kg/day, also when the dose was increased to 12,000 μg/kg/day) was “Hypoglycemia was never observed”, the hypoglycemia (C57BL/6 STZ mice; 10:1 ratio of dosages, between 3000 μg and 300 μg) was “did not cause hypoglycemia” and the “fasting glucose levels during and shortly after the course of treatment” value (C57BL/6 STZ mice; IGF-2 300 μg/kg/day, initial dose and ten additional doses over ten days, STZ mice B5, B6, B3, B4) was “did not return to a normal range; also recorded: temporary drop in fasting glucose levels from days 10-25”. The “long-term results on fasting glucose levels” value (C57BL/6 STZ mice; IGF-2 300 μg/kg/day, STZ mice B5, B3, B4) was “long-term results were not observed”, the “fasting glucose levels during the ten-day course of treatment” value (C57BL/6 STZ mice; IGF-2 800 μg/kg/day, STZ mice A8, A6, F3, F4) was “returned to a normal range” and the “blood glucose levels remaining, mice with full or almost full resolution” value (C57BL/6 STZ mice; IGF-2 800 μg/kg/day, half the mice (FIGS. 5A and 5B)) was about 200 mg/dL. For the same substance, the “fasting glucose levels after the course of treatment (long term)” value (C57BL/6 STZ mice; IGF-2 800 μg/kg/day, mice A8 and A6) was “remained in the normal range until the end of the experiment; also recorded: remained in the normal range until STZ was provided again”, the “fasting glucose levels after the ten day course of injections ended” value (C57BL/6 STZ mice; IGF-2 800 μg/kg/day, mice F3 and F4) was “around 400” and the “blood glucose levels remaining, mice with partial improvement” value (C57BL/6 STZ mice; IGF-2 800 μg/kg/day, the remaining mice (FIGS. 6A and 6B)) was about 400 mg/dL. The “fasting glucose levels during the ten-day course of treatment” value (C57BL/6 STZ mice; IGF-2 3000 μg/kg/day, STZ mice C1, C8, C6, F1) was “returned to a normal range”, the “long-term improvements in blood glucose levels” value (C57BL/6 STZ mice; IGF-2 12,000 μg/kg daily on each of 12 consecutive days) was “long-term improvements in blood glucose levels were obtained” and the “long-term improvements in blood glucose levels” value (C57BL/6 STZ mice; IGF-2 12,000 μg/kg daily on only 5 consecutive days) was “long-term improvements in blood glucose levels were not obtained”. For the same substance, the “time to reduce the blood glucose level to a normal range” value (C57BL/6 STZ mice; daily intraperitoneal 3000 μg/kg/day, averaged over four mice) was 3 to 5 days, the “blood glucose level reached (normal range), averaged over four mice” value (C57BL/6 STZ mice; daily intraperitoneal 3000 μg/kg/day, maintained for the remainder of the 10 day window) was 100 to 200 mg/dL and the “time post treatment for which normal blood glucose levels are maintained” value (C57BL/6 STZ mice; four mice, single 10 day course at 3000 μg/kg/day, long term follow up) was “at least 300 days”. The “number of IGF-2-treated mice permanently cured” value (STZ-treated mice; 12,000 μg/kg/day, four mice 5 days and two mice 10 days) was “Five”, the “glucose levels in the glucose tolerance test” value (STZ-treated mice; 2 grams/kg glucose, 50 days post-treatment, Mouse O1, not permanently cured) was “higher than the normal obese mouse” and the “response to the glucose tolerance test (blood glucose over 180 minutes)” value (STZ-treated mice; 2 grams/kg glucose, 50 days post-treatment, the five permanently cured mice) was “fell between the glucose tolerance results from the literature for non-diabetic obese mice and non-diabetic lean mice”. The insulin secretion (STZ-treated mouse islets) was “increased in a dose dependent manner”, the “increase of insulin secretion in response to a glucose pulse compared to untreated cells” value [1] was about 50% and the “cell count (cell proliferation)” value (β-MIN6 cells) was “increases cell proliferation in a dose-dependent manner”. The “increase in the number of insulin-positive cells” value (db/db mice; 12000 μg/kg on each of 70 consecutive days) was “more than 50%”, the “insulin positive cells (immunohistochemical staining)” value (db/db mice; 3000 and 12000 μg/kg on each of 70 consecutive days vs saline) was “increase in insulin positive cells in a dose-dependent manner” and the “time at which glucose levels began to rise relative to disappearance of IGF-2 from the blood” value (mice; compared with FIG. 13) was “two hours after the IGF-2 was no longer detectable in the blood”. For the same substance, the “glucose level after administration” value (mice; glucose tolerance test in mice, insulin 1 unit per kg) was “the glucose level decreased”, the “time after which the recovery in glucose levels began” value (mice; single dose, insulin 1 unit per kg) was “after six hours” and the “peak free IGF-2 in the blood” value [2] was 1 µg. The “peak total concentration of IGF-2 total in the blood” value [2] was “about 16 μg”, the “serum insulin levels relative to the control mice” value (NOD mice; 3000 μg/kg/day, two weeks after a 66 day course of treatment) was “about 4 fold” and the “average insulin secretion of the treated mice” value (NOD mice; both NOD experiments of Example 14, 3000 μg/kg daily) was “five times greater than the control mice”.
